Source: patent publication US20240166660A1, “KRAS G12C INHIBITORS” (BeiGene Switzerland GmbH, priority 2021, published 2024)

biological target: KRAS (aa 1-169) G12C, C51S, C80L, C118S (Homo sapiens (Human), UniProt P01116, C118S/C51S/C80L/G12C); experiment: Biochemical functional assay: SOS1-mediated nucleotide exchange of GDP-loaded KRAS G12C, binding to GST-cRaf RBD, FRET readout; settings: 3 hrs pre-incubation with compound at 24° C., SOS1, GTPyS, bound in uM
Protocol: Biochemical Functional Assay
The KRAS (aa 1-169) G12C, C51S, C80L, C118S with a His-tag was expressed, purified and loaded with GDP in house. All protein and substrate solutions were prepared in assay buffer containing 25 mM HEPES pH7.5, 10 mM MgCl2, and 0.01% Triton X-100. Purified GDP-loaded KRAS (aa 1-169) G12C, C51S, C80L, C118S protein was pre-incubated with a serially diluted compound at 24° C. for 3 hrs. Purified SOS1 (aa 564-1049) protein, GTPyS (Sigma) and GST-cRaf RBD (aa 1-149) were then added to each well and incubated at 24° C. for additional 3 hrs. […] Following the incubation, Mab Anti-6HIS-T cryptate (Cisbio) and Mab Anti GST-XL665 (Cisbio) were added and further incubated at 24° C. for 3 hrs. The binding interaction between active GTPyS KRAS G12C and GST-cRaf RBD brings the Tb and XL665 into close proximity enabling an increased FRET signal (Ex337 nm, Em665 nm/620 nm). The inhibition percentage of nucleotide exchange reaction in presence of increasing concentrations of compounds was calculated based on the ratio of fluorescence at 665 nm to that at 620 nm detected on a BMG PHERAstar FSX instrument. The IC50 value of each compound was calculated from fitting the data to the four-parameter logistic model by Dotmatics.

Sequence of KRAS (aa 1-169) G12C, C51S, C80L, C118S (P01116 other isoform, or with tags, fused parts or gaps G12C/C51S/C80L/C118S): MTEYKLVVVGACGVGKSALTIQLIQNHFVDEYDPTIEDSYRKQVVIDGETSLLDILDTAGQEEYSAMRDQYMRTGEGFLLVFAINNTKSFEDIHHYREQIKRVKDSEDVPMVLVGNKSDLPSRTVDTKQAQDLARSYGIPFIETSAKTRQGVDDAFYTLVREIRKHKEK

Compound	IC50
C=CC(=O)N1CCN(c2nc(N3CC(N(C)C)C3)nc3cc(-c4ccccc4C)c4c(c23)OCCC4)CC1 [Compound B18, 1-(4-(8-(3-(dimethylamino)azetidin-1-yl)-5-(o-tolyl)-3,4-dihydro-2H-pyrano[2,3-f]quinazolin-10-yl)piperazin-1-yl)prop-2-en-1-one]	> 10 µM

same assay, conditions: 3 hrs pre-incubation with compound at 24° C., SOS1, GTPyS, inhibition of nucleotide exchange

Compound	IC50
C=C(F)C(=O)N1CCN(c2nc(OC[C@@H]3C[C@@H](F)CN3C)nc3cc(-c4cccc5cccc(Cl)c45)c4ccoc4c23)C[C@@H]1CC#N [Compound B65, 2-((S)-4-(4-(8-chloronaphthalen-1-yl)-7-(((2S,4R)-4-fluoro-1-methylpyrrolidin-2-yl)methoxy)furo[2,3-f]quinazolin-9-yl)-1-(2-fluoroacryloyl)piperazin-2-yl)acetonitrile]	0.03 µM
C=CC(=O)N1CCN(c2nc(N(C)CCN(C)C)nc3cc(-c4cccc5cccc(Cl)c45)c4c(c23)OCCC4)CC1 [Compound B23, 1-(4-(5-(8-chloronaphthalen-1-yl)-8-((2-(dimethylamino)ethyl)(methyl)amino)-3,4-dihydro-2H-pyrano[2,3-f]quinazolin-10-yl)piperazin-1-yl)prop-2-en-1-one]	0.202 µM
C=CC(=O)N1CCN(c2ncnc3cc(-c4cc(C)cc5[nH]ncc45)c4c(c23)OCCC4)C[C@@H]1CC#N [Compound A11, (S)-2-(1-acryloyl-4-(5-(6-methyl-1H-indazol-4-yl)-3,4-dihydro-2H-pyrano[2,3-f]quinazolin-10-yl)piperazin-2-yl)acetonitrile]	0.799 µM
C=C(F)C(=O)N1CCN(c2nc(N3CC(N(C)C)C3)nc3cc(-c4cccc5cccc(Cl)c45)c4c(c23)OCCC4)C[C@@H]1CC#N [Compound B100, (S)-2-(4-(5-(8-chloronaphthalen-1-yl)-8-(3-(dimethylamino)azetidin-1-yl)-3,4-dihydro-2H-pyrano[2,3-f]quinazolin-10-yl)-1-(2-fluoroacryloyl)piperazin-2-yl)acetonitrile]	0.018 µM
C=CC(=O)N1CCN(c2nc(OC[C@@H]3CCCN3C)nc3cc(-c4c(Cl)c(C)cc5[nH]ncc45)c4ccoc4c23)CC1 [Compound B34, 1-(4-(4-(5-chloro-6-methyl-1H-indazol-4-yl)-7-(((S)-1-methylpyrrolidin-2-yl)methoxy)furo[2,3-f]quinazolin-9-yl)piperazin-1-yl)prop-2-en-1-one]	0.065 µM
C=CC(=O)N1CCN(c2nc(OC[C@@H]3CCCN3C)nc3cc(-c4c(Cl)c(C)cc5[nH]ncc45)c4c(c23)OCCC4)CC1 [Compound B6, 1-(4-(5-(5-chloro-6-methyl-1H-indazol-4-yl)-8-(((S)-1-methylpyrrolidin-2-yl)methoxy)-3,4-dihydro-2H-pyrano[2,3-f]quinazolin-10-yl)piperazin-1-yl)prop-2-en-1-one]	0.034 µM
C=C(F)C(=O)N1CCN(c2nc(N3CC(CC#N)(N(C)C)C3)nc3cc(-c4cccc5cccc(Cl)c45)c4c(c23)OCCC4)C[C@@H]1CC#N (single isomer, unassigned) [Compound B91]	0.015 µM
C=CC(=O)N1CCN(c2ncnc3cc(-c4c(O)cccc4F)c4c(c23)OCCC4)C[C@@H]1CC#N [Compound A4, 2-((2S)-1-acryloyl-4-(5-(2-fluoro-6-hydroxyphenyl)-3,4-dihydro-2H-pyrano[2,3-f]quinazolin-10-yl)piperazin-2-yl)acetonitrile]	0.0896 µM
C=CC(=O)N1CCN(c2ncnc3cc(-c4cccc(C)c4F)c4c(c23)OCCC4)C[C@@H]1CC#N [Compound A31, (S)-2-(1-acryloyl-4-(5-(2-fluoro-3-methylphenyl)-3,4-dihydro-2H-pyrano[2,3-f]quinazolin-10-yl)piperazin-2-yl)acetonitrile]	0.137 µM
C=CC(=O)N1CCN(c2nc(N3CC(N(C)C)C3)nc3cc(-c4ccccc4C(F)(F)F)c4ccoc4c23)CC1 [Compound B83, 1-(4-(7-(3-(dimethylamino)azetidin-1-yl)-4-(2-(trifluoromethyl)phenyl)furo[2,3-f]quinazolin-9-yl)piperazin-1-yl)prop-2-en-1-one]	1.7 µM
